Legend:
HCEH = experiment: Activity of HCEH on hydroxy-cinnamic acid ester substances and tannic acid (liquid chromatography); format: biochemical; conditions: for Relative activity: HCEH on the substance as substrate, 0.1 M phosphate buffer pH 6.5, molar ratio of produced hydrolyzate; for Action and substrate specificity of the enzyme (hydrolysis of the ester linkage): qualitative
Protocol: Here, the activity of HCEH on various hydroxy-cinnamic acid ester substances and tannic acid was determined by measuring the quantity of their hydrolysis by means of liquid chromatography using 0.1 M phosphate buffer solution (pH 6.5). The results are shown in Table 3, where the activity is expressed as molar ratio of produced hydrolyzate.

novel HCEH = experiment: Inhibition of the novel HCEH; format: biochemical

Row | Compound | Relative activity (HCEH) | Action and substrate specificity of the enzyme (hydrolysis of the ester linkage) (HCEH) | Inhibition of HCEH (novel HCEH)
1 | O=C(C=Cc1ccc(O)c(O)c1)OC(C(=O)O)C(O)C(=O)O (stereo not shown) | 69.8% | hydrolyze the ester linkage | 
2 | O=C(C=Cc1ccc(O)c(O)c1)OC1CC(O)(C(=O)O)CC(O)C1O (stereo not shown) [3-caffeoyl quinic acid] | 100% | hydrolyze the ester linkage | 
3 | Oc1cccc2cccnc12 [8-hydroxyquinoline] |  |  | inhibited
4 | [Fe+2] [Fe^++] |  |  | inhibited
5 | [Hg+2] [Hg^++] |  |  | inhibited
6 | COc1cc(C=CC(=O)OC(C(=O)O)C(O)C(=O)O)ccc1O (stereo not shown) [feruloyl tartaric acid] |  | hydrolyze the ester linkage | 
7 | II [iodine] |  |  | inhibited
8 | O=C(O)c1cc[c]([Hg][Cl])cc1 [p-CMB, p-chloromercury-benzoic acid] |  |  | inhibited
9 | O=C(C=Cc1ccc(O)cc1)OC(C(=O)O)C(O)C(=O)O (stereo not shown) [p-coumaroyl tartaric acid] | 78.3% | hydrolyze the ester linkage | 
10 | Tannic acid | 0% |  | 
